Test results: article PMC5218480 (PLoS ONE, 2017)

Test system: MV-4-11 cells
Test: Gene expression microarray analysis (Affymetrix PrimeView) and GSEA
Type: cell-based, human
Parameters: RFU PODN (11730768_x_at) / Fold change /veh PODN (11730768_x_at) / RFU LINC00158 (11744669_a_at) / Fold change /veh LINC00158 (11744669_a_at) / RFU DUSP10 (11751237_a_at) / Fold change /veh DUSP10 (11751237_a_at) / RFU ID3 (11757404_x_at) / Fold change /veh ID3 (11757404_x_at) / RFU PLEKHG5 (11737974_s_at) / Fold change /veh PLEKHG5 (11737974_s_at) / RFU LRRC4B (11730491_at) / Fold change /veh LRRC4B (11730491_at) / RFU GIMAP4 (11747438_a_at) / Fold change /veh GIMAP4 (11747438_a_at) / RFU KRT8 (11758183_x_at) / Fold change /veh KRT8 (11758183_x_at) / RFU CNN1 (11734310_a_at) / Fold change /veh CNN1 (11734310_a_at) / RFU VPS37D (11726825_at) / Fold change /veh VPS37D (11726825_at) / RFU C10orf10 (11716522_x_at) / Fold change /veh C10orf10 (11716522_x_at) / RFU KIR2DL2 /// KIR2DL4 /// KIR2DL5A /// KIR2DL5B /// KIR2DS1 /// KIR2DS2 /// KIR2DS3 /// KIR2DS4 /// KIR3DL3 /// KIR3DL3 /// KIR3DS1 (11738374_at) / Fold change /veh KIR2DL2 /// KIR2DL4 /// KIR2DL5A /// KIR2DL5B /// KIR2DS1 /// KIR2DS2 /// KIR2DS3 /// KIR2DS4 /// KIR3DL3 /// KIR3DL3 /// KIR3DS1 (11738374_at) / RFU C1QL1 (11718748_at) / Fold change /veh C1QL1 (11718748_at) / RFU TMPRSS4 (11747572_a_at) / Fold change /veh TMPRSS4 (11747572_a_at) / RFU HAMP (11756126_x_at) / Fold change /veh HAMP (11756126_x_at) / RFU RNFT2 (11725882_a_at) / Fold change /veh RNFT2 (11725882_a_at) / RFU NR4A2 (11747474_a_at) / Fold change /veh NR4A2 (11747474_a_at) / RFU ABCC12 (11746883_a_at) / Fold change /veh ABCC12 (11746883_a_at) / RFU TMEM136 (11760407_x_at) / Fold change /veh TMEM136 (11760407_x_at) / RFU CLDN22 /// WWC2 (11732394_at) / Fold change /veh CLDN22 /// WWC2 (11732394_at) / RFU HLA-DPB1 (11760878_x_at) / Fold change /veh HLA-DPB1 (11760878_x_at) / RFU SPINT1 (11716480_a_at) / Fold change /veh SPINT1 (11716480_a_at) / RFU GAP43 (11754022_s_at) / Fold change /veh GAP43 (11754022_s_at) / RFU A4GNT (11735810_at) / Fold change /veh A4GNT (11735810_at) / RFU PRB3 (11715151_x_at) / Fold change /veh PRB3 (11715151_x_at) / RFU TUBB4B (11761932_at) / Fold change /veh TUBB4B (11761932_at) / RFU CAPN14 (11732068_a_at) / Fold change /veh CAPN14 (11732068_a_at) / RFU TMCC2 (11721928_a_at) / Fold change /veh TMCC2 (11721928_a_at) / RFU IRGQ (11745062_a_at) / Fold change /veh IRGQ (11745062_a_at) / RFU FAM174B (11720279_a_at) / Fold change /veh FAM174B (11720279_a_at) / RFU TMPRSS4 (11748680_a_at) / Fold change /veh TMPRSS4 (11748680_a_at) / RFU FAM212B (11763350_a_at) / Fold change /veh FAM212B (11763350_a_at) / RFU PLEKHG5 (11743358_a_at) / Fold change /veh PLEKHG5 (11743358_a_at) / RFU ZSCAN30 (11745921_a_at) / Fold change /veh ZSCAN30 (11745921_a_at) / RFU CMKLR1 (11741424_a_at) / Fold change /veh CMKLR1 (11741424_a_at) / RFU LOC101060620 /// MAPK8IP1 (11723275_at) / Fold change /veh LOC101060620 /// MAPK8IP1 (11723275_at) / RFU SPTSSB (11747773_x_at) / Fold change /veh SPTSSB (11747773_x_at) / RFU PRSS12 (11739890_at) / Fold change /veh PRSS12 (11739890_at) / RFU BIN1 (11741810_x_at) / Fold change /veh BIN1 (11741810_x_at) / RFU WNT11 (11732464_a_at) / Fold change /veh WNT11 (11732464_a_at) / RFU C10orf10 (11716521_a_at) / Fold change /veh C10orf10 (11716521_a_at) / RFU C5orf56 (11738089_at) / Fold change /veh C5orf56 (11738089_at) / RFU CYB561 (11721691_x_at) / Fold change /veh CYB561 (11721691_x_at) / RFU ANKRD19P (11752326_a_at) / Fold change /veh ANKRD19P (11752326_a_at) / RFU OR2T12 /// OR2T33 /// OR2T8 (11738714_s_at) / Fold change /veh OR2T12 /// OR2T33 /// OR2T8 (11738714_s_at) / RFU VCAN (11748164_a_at) / Fold change /veh VCAN (11748164_a_at) / RFU JSRP1 (11732532_at) / Fold change /veh JSRP1 (11732532_at) / RFU KRTAP10-11 (11738290_x_at) / Fold change /veh KRTAP10-11 (11738290_x_at) / RFU MYO3A (11730013_a_at) / Fold change /veh MYO3A (11730013_a_at) / RFU EBF3 (11725865_a_at) / Fold change /veh EBF3 (11725865_a_at) / RFU CAMK2N1 (11719241_x_at) / Fold change /veh CAMK2N1 (11719241_x_at) / RFU C5orf56 (11738088_a_at) / Fold change /veh C5orf56 (11738088_a_at) / RFU OLFML3 (11715873_a_at) / Fold change /veh OLFML3 (11715873_a_at) / RFU LOC100653217 /// NTM (11731650_a_at) / Fold change /veh LOC100653217 /// NTM (11731650_a_at) / RFU MAPK11 (11762145_a_at) / Fold change /veh MAPK11 (11762145_a_at) / RFU FIZ1 (11724087_x_at) / Fold change /veh FIZ1 (11724087_x_at) / RFU OASL (11726364_x_at) / Fold change /veh OASL (11726364_x_at) / RFU SOX15 (11748057_x_at) / Fold change /veh SOX15 (11748057_x_at) / RFU CD79A (11719716_a_at) / Fold change /veh CD79A (11719716_a_at) / RFU HIST1H1D (11736915_at) / Fold change /veh HIST1H1D (11736915_at) / RFU CASKIN2 (11723855_a_at) / Fold change /veh CASKIN2 (11723855_a_at) / RFU LOC730098 (11760151_x_at) / Fold change /veh LOC730098 (11760151_x_at) / RFU OR4N2 (11742367_at) / Fold change /veh OR4N2 (11742367_at) / RFU PRRT2 (11749266_a_at) / Fold change /veh PRRT2 (11749266_a_at) / RFU SNX32 (11753110_a_at) / Fold change /veh SNX32 (11753110_a_at) / RFU CDHR5 (11726645_a_at) / Fold change /veh CDHR5 (11726645_a_at) / RFU RCAN1 (11760418_a_at) / Fold change /veh RCAN1 (11760418_a_at) / RFU FAM167A (11723789_a_at) / Fold change /veh FAM167A (11723789_a_at) / RFU FAM26E (11764081_at) / Fold change /veh FAM26E (11764081_at) / RFU ISYNA1 (11749810_s_at) / Fold change /veh ISYNA1 (11749810_s_at) / RFU ACY1 (11761880_at) / Fold change /veh ACY1 (11761880_at) / RFU 11764098_at / Fold change /veh 11764098_at / RFU SAMD14 (11745864_x_at) / Fold change /veh SAMD14 (11745864_x_at) / RFU NPB (11741838_a_at) / Fold change /veh NPB (11741838_a_at) / RFU TMPRSS6 (11731388_a_at) / Fold change /veh TMPRSS6 (11731388_a_at) / RFU KRTAP10-2 (11738614_at) / Fold change /veh KRTAP10-2 (11738614_at) / RFU ARHGAP8 /// PRR5-ARHGAP8 (11727945_x_at) / Fold change /veh ARHGAP8 /// PRR5-ARHGAP8 (11727945_x_at) / RFU KRTAP5-7 /// NADSYN1 (11734609_at) / Fold change /veh KRTAP5-7 /// NADSYN1 (11734609_at) / RFU RASL12 (11751679_a_at) / Fold change /veh RASL12 (11751679_a_at) / RFU CDKN2B (11736163_a_at) / Fold change /veh CDKN2B (11736163_a_at) / RFU PRF1 (11729649_at) / Fold change /veh PRF1 (11729649_at) / RFU, ZNF638 /// ZNF638-IT1 / Fold change vs veh, ZNF638 /// ZNF638-IT1 / RFU, PANK3 / Fold change vs veh, PANK3 / RFU, SH3YL1 / Fold change vs veh, SH3YL1 / RFU, ZEB2 / Fold change vs veh, ZEB2 / RFU, NRIP1 / Fold change vs veh, NRIP1 / RFU, PTTG1IP / Fold change vs veh, PTTG1IP / RFU, CAPN2 / Fold change vs veh, CAPN2 / RFU, MED14 / Fold change vs veh, MED14 / RFU, SNORA58 / Fold change vs veh, SNORA58 / RFU, C1orf63 / Fold change vs veh, C1orf63 / RFU, LRRFIP1 / Fold change vs veh, LRRFIP1 / RFU, NDUFAF7 / Fold change vs veh, NDUFAF7 / RFU, SLC12A2 / Fold change vs veh, SLC12A2 / RFU, IBTK / Fold change vs veh, IBTK / RFU, ESF1 / Fold change vs veh, ESF1 / Fold change vs veh, TMEM50B / RFU, TAOK1 / Fold change vs veh, TAOK1 / RFU, ACBD3 / Fold change vs veh, ACBD3 / RFU, TMA16 / Fold change vs veh, TMA16 / RFU, RWDD3 / Fold change vs veh, RWDD3 / RFU, BCAT1 / Fold change vs veh, BCAT1 / RFU, EDEM3 / Fold change vs veh, EDEM3 / RFU, TMEM33 / Fold change vs veh, TMEM33 / RFU, WDR75 / Fold change vs veh, WDR75 / RFU, AHCTF1 / Fold change vs veh, AHCTF1 / RFU, TFRC / Fold change vs veh, TFRC / RFU, ZDHHC17 / Fold change vs veh, ZDHHC17 / RFU, NOM1 / Fold change vs veh, NOM1 / RFU, ARL8B / Fold change vs veh, ARL8B / RFU, ZBTB11 / Fold change vs veh, ZBTB11 / RFU, TAMM41 / Fold change vs veh, TAMM41 / RFU, KIAA1704 /// LOC100996395 / Fold change vs veh, KIAA1704 /// LOC100996395 / RFU, ING1 / Fold change vs veh, ING1 / RFU, TRMT61B / Fold change vs veh, TRMT61B / RFU, FUBP3 / Fold change vs veh, FUBP3 / RFU, TP53 / Fold change vs veh, TP53 / RFU, TNKS2 / Fold change vs veh, TNKS2 / RFU, ZFP14 / Fold change vs veh, ZFP14 / RFU, ACTR2 / Fold change vs veh, ACTR2 / RFU, PPP3R1 / Fold change vs veh, PPP3R1 / RFU, PIK3R1 / Fold change vs veh, PIK3R1 / RFU, HNRNPA1 / Fold change vs veh, HNRNPA1 / RFU, RNF170 / Fold change vs veh, RNF170 / RFU, ZNF28 / Fold change vs veh, ZNF28 / RFU, RNGTT / Fold change vs veh, RNGTT / RFU, OGT / Fold change vs veh, OGT / RFU, BRD1 / Fold change vs veh, BRD1 / RFU, MARS / Fold change vs veh, MARS / RFU, ZNF655 / Fold change vs veh, ZNF655 / RFU, FAHD1 / Fold change vs veh, FAHD1 / RFU, BDP1 / Fold change vs veh, BDP1 / RFU, LRRCC1 / Fold change vs veh, LRRCC1 / RFU, ARID1A / Fold change vs veh, ARID1A / RFU, ZNF146 / Fold change vs veh, ZNF146 / RFU, ZNF330 / Fold change vs veh, ZNF330 / RFU, GPN3 / Fold change vs veh, GPN3 / RFU, C9orf123 / Fold change vs veh, C9orf123 / RFU, N4BP2L2 / Fold change vs veh, N4BP2L2 / RFU, ARFIP1 / Fold change vs veh, ARFIP1 / RFU, FAM179B / Fold change vs veh, FAM179B / RFU, BCL10 / Fold change vs veh, BCL10 / RFU, UHRF1BP1L / Fold change vs veh, UHRF1BP1L / RFU, BET1 / Fold change vs veh, BET1 / RFU, CNOT2 / Fold change vs veh, CNOT2 / RFU, ZNF268 / Fold change vs veh, ZNF268 / Fold change vs veh, ZNF507 / RFU, DGCR2 / Fold change vs veh, DGCR2 / RFU, WDSUB1 / Fold change vs veh, WDSUB1 / Fold change vs veh, HSP90B1 /// MIR3652 / RFU, ADSS / Fold change vs veh, ADSS / RFU, GK / Fold change vs veh, GK / RFU, ZNF148 / Fold change vs veh, ZNF148 / RFU, TAF9 / Fold change vs veh, TAF9 / RFU, SLC1A5 / Fold change vs veh, SLC1A5 / RFU, SLMO2 / Fold change vs veh, SLMO2 / RFU, ABCC4 / Fold change vs veh, ABCC4 / RFU, LOC101060439 /// RAP1B / Fold change vs veh, LOC101060439 /// RAP1B / RFU, RFX7 / Fold change vs veh, RFX7 / RFU, GTPBP10 / Fold change vs veh, GTPBP10 / RFU, CNEP1R1 / Fold change vs veh, CNEP1R1 / RFU, BIVM-ERCC5 /// ERCC5 / Fold change vs veh, BIVM-ERCC5 /// ERCC5 / RFU, ILF3 / Fold change vs veh, ILF3 / RFU 11762660_at / Fold change /veh 11762660_at / RFU VCAN (11757783_s_at) / Fold change /veh VCAN (11757783_s_at) / RFU DDX43 (11728927_at) / Fold change /veh DDX43 (11728927_at) / RFU KRT8 (11758188_x_at) / Fold change /veh KRT8 (11758188_x_at) / RFU NKD1 (11759106_at) / Fold change /veh NKD1 (11759106_at) / RFU SRD5A1 (11742802_a_at) / Fold change /veh SRD5A1 (11742802_a_at) / RFU TPSAB1 /// TPSB2 (11721975_s_at) / Fold change /veh TPSAB1 /// TPSB2 (11721975_s_at) / RFU GSTM3 (11746129_a_at) / Fold change /veh GSTM3 (11746129_a_at) / RFU IL23R (11737362_x_at) / Fold change /veh IL23R (11737362_x_at) / RFU TMEM51 (11727254_a_at) / Fold change /veh TMEM51 (11727254_a_at) / RFU PIWIL2 (11732686_x_at) / Fold change /veh PIWIL2 (11732686_x_at) / RFU ORM1 (11744905_x_at) / Fold change /veh ORM1 (11744905_x_at) / RFU CCDC152 (11743942_at) / Fold change /veh CCDC152 (11743942_at) / RFU ECM1 (11717891_a_at) / Fold change /veh ECM1 (11717891_a_at) / RFU IL23R (11748794_a_at) / Fold change /veh IL23R (11748794_a_at) / RFU TNFAIP8L3 (11732012_x_at) / Fold change /veh TNFAIP8L3 (11732012_x_at) / RFU MBOAT4 (11741988_at) / Fold change /veh MBOAT4 (11741988_at) / RFU 11764193_at / Fold change /veh 11764193_at / RFU TMEM53 (11763286_at) / Fold change /veh TMEM53 (11763286_at) / RFU MAGEB2 (11727129_at) / Fold change /veh MAGEB2 (11727129_at) / RFU TMEM200A (11744735_a_at) / Fold change /veh TMEM200A (11744735_a_at) / RFU CCDC152 (11751479_a_at) / Fold change /veh CCDC152 (11751479_a_at) / RFU FAM211A (11726209_a_at) / Fold change /veh FAM211A (11726209_a_at) / RFU RGS16 (11746705_a_at) / Fold change /veh RGS16 (11746705_a_at) / RFU VCAN (11755009_s_at) / Fold change /veh VCAN (11755009_s_at) / RFU RHOB (11743442_s_at) / Fold change /veh RHOB (11743442_s_at) / RFU RGS16 (11720943_a_at) / Fold change /veh RGS16 (11720943_a_at) / RFU RGS16 (11720944_at) / Fold change /veh RGS16 (11720944_at) / RFU, VPS4B / Fold change vs veh, VPS4B / RFU, CREB1 / Fold change vs veh, CREB1 / RFU, DNAJC13 / Fold change vs veh, DNAJC13 / RFU, GNAQ / Fold change vs veh, GNAQ / RFU, CDK5R1 / Fold change vs veh, CDK5R1 / RFU, ZRANB3 / Fold change vs veh, ZRANB3 / RFU, CUL4A / Fold change vs veh, CUL4A / RFU, CCNY / Fold change vs veh, CCNY / RFU, UFL1 / Fold change vs veh, UFL1 / RFU, COG3 / Fold change vs veh, COG3 / RFU, DIAPH2 / Fold change vs veh, DIAPH2 / RFU, SKA2 / Fold change vs veh, SKA2 / RFU, AFF3 / Fold change vs veh, AFF3 / RFU, LMF1 / Fold change vs veh, LMF1 / RFU, IPO11 / Fold change vs veh, IPO11 / RFU, DFFB / Fold change vs veh, DFFB / RFU, FOXP1 / Fold change vs veh, FOXP1 / RFU, CARD8 / Fold change vs veh, CARD8 / RFU, STRN3 / Fold change vs veh, STRN3 / RFU, ADK / Fold change vs veh, ADK / RFU, RASSF2 / Fold change vs veh, RASSF2 / RFU, WIPF1 / Fold change vs veh, WIPF1 / RFU, LARP1B / Fold change vs veh, LARP1B / RFU, RASA1 / Fold change vs veh, RASA1 / RFU, RB1 / Fold change vs veh, RB1 / RFU, PPFIA1 / Fold change vs veh, PPFIA1 / RFU, MAT2A / Fold change vs veh, MAT2A / RFU, CCT5 / Fold change vs veh, CCT5 / RFU, WDR92 / Fold change vs veh, WDR92 / RFU, CUX1 / Fold change vs veh, CUX1 / RFU, TTC7A / Fold change vs veh, TTC7A / RFU, TMEM135 / Fold change vs veh, TMEM135 / RFU, DEPTOR / Fold change vs veh, DEPTOR / RFU, CPM / Fold change vs veh, CPM / RFU, DNAJB6 / Fold change vs veh, DNAJB6 / RFU, CACNA2D3 / Fold change vs veh, CACNA2D3 / RFU, DTX4 / Fold change vs veh, DTX4 / RFU, TFCP2 / Fold change vs veh, TFCP2 / RFU, GMCL1 /// GMCL1P1 / Fold change vs veh, GMCL1 /// GMCL1P1 / RFU, AEBP2 / Fold change vs veh, AEBP2 / RFU, SNHG1 /// SNORD22 /// SNORD25 /// SNORD26 /// SNORD27 /// SNORD28 /// SNORD29 /// SNORD31 / Fold change vs veh, SNHG1 /// SNORD22 /// SNORD25 /// SNORD26 /// SNORD27 /// SNORD28 /// SNORD29 /// SNORD31 / Fold change (Aza/veh), C12orf56 (ProbeSet 11735607_a_at) / Fold change (ACY-1035/veh), C12orf56 (ProbeSet 11735607_a_at) / Fold change (Aza/veh), FGFR1OP (ProbeSet 11751329_s_at) / Fold change (ACY-1035/veh), FGFR1OP (ProbeSet 11751329_s_at) / Fold change (Aza/veh), VPS36 (ProbeSet 11739960_a_at) / Fold change (ACY-1035/veh), VPS36 (ProbeSet 11739960_a_at) / RFU SYPL1 (11715823_x_at) / Fold change /veh SYPL1 (11715823_x_at) / RFU IGFBP7 (11715501_s_at) / Fold change /veh IGFBP7 (11715501_s_at) / RFU REEP3 (11722064_at) / Fold change /veh REEP3 (11722064_at) / RFU IGLL1 (11728026_x_at) / Fold change /veh IGLL1 (11728026_x_at): dose or concentration left out as unconfirmed
Settings: ProbeSet 11749781_s_at; LIST B

Nc1ncn([C@@H]2O[C@H](CO)[C@@H](O)[C@H]2O)c(=O)n1 [azacitidine]
RFU, BCAT1: 11.21 RFU
